From US7605272B2, “IGF-1R inhibitor” (Kyowa Hakko Kirin Co., Ltd., priority 2005, dated 2009) come the findings set out here.

One experiment concerns NCI-H929. Put plainly: Cytostatic activity on human multiple myeloma cell line NCI-H929 (WST-1). It counts as cell-based. The settings on record: 1 μmol/L, 72 hours; for inhibition at 1 µM: Homo sapiens, NCI-H929, 72 h, read-out: cytostatic rate (%) H929 (1 μmol/L). The procedure, abridged:
(§1)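 Cells pre-cultured 24 h at 37 °C, 5% CO2, then exposed 72 h to compound at final 1 or 10 μmol/L (0.1% DMSO). WST-1 added for 2 h, absorbance at 450 nm (ref 690 nm). Cytostatic rate = 100 minus relative growth, with DMSO control as 100% and blank as 0%.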
On the technique in general: Tetrazolium dyes change colour on reduction, which living cells bring about.

The next experiment deals with T1, IGF-1R (Homo sapiens, UniProt P08069).
T1 construct: purchased Upstate Co. 14-465
As to the kind of experiment: IGF-1R inhibitory activity (kinase reaction, time-resolved fluoroimmunoassay). It counts as biochemical. The settings on record: IGF-1R active recombinant enzyme, test compound 10 μmol/L. The procedure, abridged:
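Compounds were tested at a single 10 μmol/L concentration. Each was incubated with recombinant IGF-1R (200 μg/L), 10 mmol/L ATP, MgCl2/MnCl2 and Na3VO4 (pH 7.5) on immobilized poly(Glu-Tyr) peptide for 30 min at 24° C. Eu-anti-phosphotyrosine time-resolved fluorescence (340/615 nm) gave relative activity against no-compound and no-enzyme wells, reported as % inhibition.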

For the next experiment, the system named is KMS-11. Put plainly: Cytostatic activity on human multiple myeloma cell line KMS-11 (WST-1). Format: cell-based. The settings on record: 1 μmol/L, 72 hours; for inhibition at 1 µM: Homo sapiens, KMS-11, 72 h, read-out: cytostatic rate (%) KMS-11 (1 μmol/L). The procedure, abridged: as §1

T1 sequence (P08069 959-1367 limits assumed): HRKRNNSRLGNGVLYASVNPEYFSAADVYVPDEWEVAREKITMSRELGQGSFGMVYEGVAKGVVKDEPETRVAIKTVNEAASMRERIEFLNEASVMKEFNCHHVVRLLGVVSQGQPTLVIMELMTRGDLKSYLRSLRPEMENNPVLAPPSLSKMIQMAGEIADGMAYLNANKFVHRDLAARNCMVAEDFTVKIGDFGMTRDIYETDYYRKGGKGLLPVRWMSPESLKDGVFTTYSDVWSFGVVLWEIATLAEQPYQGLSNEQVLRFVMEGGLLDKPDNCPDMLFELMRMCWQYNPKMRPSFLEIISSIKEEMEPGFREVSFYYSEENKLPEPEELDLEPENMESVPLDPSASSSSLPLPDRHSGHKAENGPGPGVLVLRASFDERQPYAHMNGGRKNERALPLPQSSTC

In the case of `Cc1ccsc1C(=O)Nc1cc(CN2CCN(C=O)CC2)ccc1/C=C/c1n[nH]c2ccccc12` [Compound 270, (E)-N-{5-(4-formylpiperazin-1-ylmethyl)-2-[2-(1H-indazol-3-yl)vinyl]phenyl}-3-methylthiophene-2-carboxamide], the inhibition at 1 µM is 121% in the experiment on NCI-H929 and 129% in the experiment on KMS-11. Besides, the inhibition at 10 µM at IGF-1R amounted to 100%.
The corresponding values for `COCCN1CCN(Cc2ccc(/C=C/c3n[nH]c4ccccc34)c(NC(=O)c3sccc3C)c2)CC1` [Compound 271, (E)-N-{2-[2-(1H-indazol-3-yl)vinyl]-5-[4-(2-methoxyethyl)piperazin-1-ylmethyl]phenyl}-3-methylthiophene-2-carboxamide] are 119%, 123% and 102%.
The corresponding values for `Cc1ccsc1C(=O)Nc1cc(N2CCN(S(C)(=O)=O)CC2)ccc1/C=C/c1n[nH]c2ccccc12` [Compound 272, (E)-N-{2-[2-(1H-indazol-3-yl)vinyl]-5-(4-methanesulfonylpiperazin-1-yl)phenyl}-3-methylthiophene-2-carboxamide] are 120%, 135% and 101%.
With `Cc1ccsc1C(=O)Nc1cc(N2CCN(CCO)CC2)ccc1/C=C/c1n[nH]c2ccccc12` [Compound 273, (E)-N-{5-[4-(2-hydroxyethyl)piperazin-1-yl]-2-[2-(1H-indazol-3-yl)vinyl]phenyl}-3-methylthiophene-2-carboxamide], the inhibition at 1 µM with NCI-H929 turned out to be 115%; with KMS-11 it was 111%. Moreover, on IGF-1R, the inhibition at 10 µM is 104%.
The like results for `Cc1ccsc1C(=O)Nc1cc(N2CCNCC2)ccc1/C=C/c1n[nH]c2ccccc12` [Compound 274, (E)-N-{2-[2-(1H-indazol-3-yl)vinyl]-5-piperazin-1-ylphenyl}-3-methylthiophene-2-carboxamide] were, in that order, 114%, 108% and 104%.
The like results for `COCCOc1ccc(/C=C/c2n[nH]c3ccccc23)c(NC(=O)c2sccc2C)c1` [Compound 275, (E)-N-{2-[2-(1H-indazol-3-yl)vinyl]-5-(2-methoxyethoxy)phenyl}-3-methylthiophene-2-carboxamide] were, in that order, 118%, 116% and 98.6%.
The like results for `Cc1ccsc1C(=O)Nc1cc(CN2CCN(CCCO)CC2)ccc1/C=C/c1n[nH]c2ccccc12` [Compound 277, (E)-N-{5-[4-(3-hydroxypropyl)piperazin-1-ylmethyl]-2-[2-(1H-indazol-3-yl)vinyl]phenyl}-3-methylthiophene-2-carboxamide] were, in that order, 119%, 107% and 99.5%.
Consider `COCCN1CCN(c2ccc(/C=C/c3n[nH]c4ccccc34)c(NC(=O)c3sccc3C)c2)CC1` [Compound 279, (E)-N-{2-[2-(1H-indazol-3-yl)vinyl]-5-[4-(2-methoxyethyl)piperazin-1-yl]phenyl}-3-methylthiophene-2-carboxamide], for which the inhibition at 1 µM in the experiment with NCI-H929 worked out at 112%; with KMS-11 it was 111%. On IGF-1R, the inhibition at 10 µM came out at 98.2%.
In the case of `Cc1ccsc1C(=O)Nc1cc(N(C)CCO)ccc1/C=C/c1n[nH]c2ccccc12` [Compound 280], in the experiment with NCI-H929, the “cytostatic rate (%) H929 (1 μmol/L)” value came to 112.2%. For the same compound, the “inhibitory activity (%) at 10 μmol/L” value at IGF-1R came out at 97.6%. Also, the “cytostatic rate (%) KMS-11 (1 μmol/L)” value in the experiment with KMS-11 is recorded as 109.0%.
Consider `Cc1ccsc1C(=O)Nc1cc(C(=O)N2CCN(CCO)CC2)ccc1/C=C/c1n[nH]c2ccccc12` [Compound 281, (E)-N-{5-[4-(2-hydroxyethyl)piperazin-1-ylcarbonyl]-2-[2-(1H-indazol-3-yl)vinyl]phenyl}-3-methylthiophene-2-carboxamide], for which the results for the inhibition at 1 µM in the experiment on NCI-H929 and in the experiment on KMS-11 were 128% and 115%, respectively. For the same compound, the inhibition at 10 µM at IGF-1R turned out to be 97.2%.
The like results for `Cc1ccsc1C(=O)Nc1cc(C(=O)NCCN2CCOCC2)ccc1/C=C/c1n[nH]c2ccccc12` [Compound 282, (E)-N-(2-[2-(1H-indazol-3-yl)vinyl]-5-{N-[2-(morpholin-4-yl)ethyl]carbamoyl}phenyl)-3-methylthiophene-2-carboxamide] were, in that order, 130%, 123% and 99.2%.
The like results for `CNC1CCN(C(=O)c2ccc(/C=C/c3n[nH]c4ccccc34)c(NC(=O)c3sccc3C)c2)C1` (stereo not drawn) [Compound 283, (E)-N-{2-[2-(1H-indazol-3-yl)vinyl]-5-[3-(methylamino)pyrrolidin-1-ylcarbonyl]phenyl}-3-methylthiophene-2-carboxamide] were, in that order, 128%, 116% and 101%.
In the case of `COCCN(CCN(C)C)c1ccc(/C=C/c2n[nH]c3ccccc23)c(NC(=O)c2sccc2C)c1` [Compound 284, (E)-N-{5-[N-(2-dimethylaminoethyl)-2-(methoxyethyl)amino]-2-[2-(1H-indazol-3-yl)vinyl]phenyl}-3-methylthiophene-2-carboxamide], in the experiment with NCI-H929, the “cytostatic rate (%) H929 (1 μmol/L)” value was 121.2%. The “inhibitory activity (%) at 10 μmol/L” value on IGF-1R came to 97.5%. In addition, the “cytostatic rate (%) KMS-11 (1 μmol/L)” value in the experiment on KMS-11 is on record as 130.8%.
With `O=C(Nc1cc(C(=O)N2CCN(CCO)CC2)ccc1/C=C/c1n[nH]c2ccccc12)c1cccs1` [Compound 289, (E)-N-{5-[4-(2-hydroxyethyl)piperazin-1-ylcarbonyl]-2-[2-(1H-indazol-3-yl)vinyl]phenyl}thiophene-2-carboxamide], the figures for the inhibition at 1 µM in the experiment on NCI-H929 and in the experiment on KMS-11 were 102% and 73.6%, respectively. In addition, the inhibition at 10 µM on IGF-1R stood at 93.5%.
With `COc1cc(/C=C/c2n[nH]c3ccccc23)c(NC(=O)c2sccc2C)cc1OCCCN1CCOCC1` [Compound 292, (E)-N-{2-[2-(1H-indazol-3-yl)vinyl]-4-methoxy-5-[3-(morpholin-4-yl)propyloxy]phenyl}-3-methylthiophene-2-carboxamide], the inhibition at 1 µM is 113% in the experiment on NCI-H929 and 122% in the experiment on KMS-11. On IGF-1R, the inhibition at 10 µM was 97.2%.
As to `COc1cc(/C=C/c2n[nH]c3ccccc23)c(NC(=O)c2sccc2C)cc1OCCN1CCOCC1` [Compound 293, (E)-N-{2-[2-(1H-indazol-3-yl)vinyl]-4-methoxy-5-[2-(morpholin-4-yl)ethoxy]phenyl}-3-methylthiophene-2-carboxamide], the inhibition at 1 µM with NCI-H929 amounted to 110%; in the experiment on KMS-11, 119%. Also, the inhibition at 10 µM at IGF-1R came to 98.9%.
As for `Cc1ccsc1C(=O)Nc1cc(CN2CCC(N(C)C)C2)ccc1/C=C/c1n[nH]c2ccccc12` (stereo not drawn) [Compound 294, (E)-N-{5-[3-(dimethylamino)pyrrolidin-1-ylmethyl]-2-[2-(1H-indazol-3-yl)vinyl]phenyl}-3-methylthiophene-2-carboxamide], the inhibition at 1 µM came out at 118% in the experiment with NCI-H929 and 116% in the experiment with KMS-11. The inhibition at 10 µM on IGF-1R was 98.2%.
The corresponding values for `Cc1ccsc1C(=O)Nc1cc(C(=O)N2CCC(N(C)C)C2)ccc1/C=C/c1n[nH]c2ccccc12` (stereo not drawn) [Compound 295, (E)-N-{5-[3-(dimethylamino)pyrrolidin-1-ylcarbonyl]-2-[2-(1H-indazol-3-yl)vinyl]phenyl}-3-methylthiophene-2-carboxamide] are 118%, 118% and 97.2%.
The like results for `Cc1ccsc1C(=O)Nc1cc(CN2CCC(N3CCOCC3)CC2)ccc1/C=C/c1n[nH]c2ccccc12` [Compound 296, (E)-N-{2-[2-(1H-indazol-3-yl)vinyl]-5-[4-(morpholin-4-yl)piperidin-1-ylmethyl]phenyl}-3-methylthiophene-2-carboxamide] were, in that order, 117%, 112% and 99.9%.
The corresponding values for `Cc1ccsc1C(=O)Nc1cc(C(=O)N(C)C2CCNCC2)ccc1/C=C/c1n[nH]c2ccccc12` [Compound 297, (E)-N-{2-[2-(1H-indazol-3-yl)vinyl]-5-[N-methyl-N-(piperidine-4-yl)carbamoyl]phenyl}-3-methylthiophene-2-carboxamide] are 116%, 94.5% and 101%.
Consider `COCCN(C)CCCOc1cc(NC(=O)c2sccc2C)c(/C=C/c2n[nH]c3ccccc23)cc1OC` [Compound 298, (E)-N-{2-[2-(1H-indazol-3-yl)vinyl]-4-methoxy-5-{3-[N-(2-methoxyethyl)methylamino]propyloxy}phenyl}-3-methylthiophene-2-carboxamide], for which the inhibition at 1 µM in the experiment on NCI-H929 amounted to 117%; in the experiment with KMS-11 it was 110%. For the same compound, the inhibition at 10 µM on IGF-1R amounted to 94.2%.
The like results for `CCN(CC)CCCOc1cc(NC(=O)c2sccc2C)c(/C=C/c2n[nH]c3ccccc23)cc1OC` [Compound 300, (E)-N-{5-[3-(diethylamino)propyloxy]-2-[2-(1H-indazol-3-yl)vinyl]-4-methoxyphenyl}-3-methylthiophene-2-carboxamide] were, in that order, 119%, 116% and 97.2%.
